Laboratory results published in patent publication US5441968A, “Therapeutically active fluoro substituted benzimidazoles” (priority 1993, dated 1995).

Assays:
[1] = Chemical stability in aqueous buffer solution at different pH values; assay type: physicochemical; details: for Chemical stability at pH2 t 10%: pH 2, 37° C., time after which 10% has decomposed
Experimental: The chemical stability of the compounds of the invention has been followed kinetically at low concentration at 37° C. in aqueous buffer solution at different pH values. The results in Table 3 show the half life (t 1/2) at pH 7, that is the time period after which half the amount of the original compound remains unchanged, and t10% at pH 2, that is the time period after which 10% of the original compound has decomposed.

[2] = tested on: gastric acid secretion; test: Inhibition of gastric acid secretion in the conscious dog; assay type: in vivo, dog (Harrier); details: for Inhibition of acid secretion: id
Experimental: The potency for inhibition of acid secretion is measured in the male rat and the dog, both intravenously and intraduodenally. When it comes to relevance of the animal test data for potency of a given compound in man for the present type of compounds, it is believed that potency in man will correspond to a level somewhere between what is measured in the male rat and what is measured in the dog.
Inhibition of Gastric Acid Secretion and Bioavailability in the Conscious Dog
Harrier dogs of either sex were used. They were equipped with a duodenal fistula for the administration of test compounds or vehicle and a cannulated ventricular fistula for the collection of gastric secretions.
Before secretory tests the animals were fasted for about 18 h but water was freely allowed. Gastric acid secretion was stimulated by a 4 h infusion of histamine dihydrochloride (12 ml/h) at a dose producing about 80% of the individual maximal secretory response, and gastric juice collected in consecutive 30-min fractions. Test substance or vehicle was given id or iv 1 h after starting the histamine infusion, in a volume of 0.5 ml/kg body weight. The acidity of the gastric juice samples were determined by titration to pH 7.0, and the acid output calculated. The acid output in the collection periods after administration of test substance or vehicle were expressed as fractional responses, setting the acid output in the fraction preceding administration to 1.0. Percentage inhibition was calculated from fractional responses elicited by test compound and vehicle. ED50 values were obtained by graphical interpolation on log dose-response curves, or estimated from single-dose experiments under the assumption of the same slope of the dose-response curve for all test compounds. All results reported are based on acid output 2 h after dosing.

| Chemical stability at pH2 t 10% [1] [h] | half-life ([1]; pH 7, 37° C., read-out: Chemical stability at pH 7 t1/2 (converted)) [h] | SMILES | ED50 ([2]; Canis lupus familiaris, dog, id administration, histamine-stimulated, acid output 2 h after dosing) [µmol/kg] | Inhibition of acid secretion ([2]; Dog 1, 1.5 μmol/kg) [%] | Inhibition of acid secretion ([2]; Dog 2, 1.5 μmol/kg) |
| --- | --- | --- | --- | --- | --- |
| 2 |  | COc1ccnc(C[S+]([O-])c2nc3c(F)cccc3n2COC(=O)OCc2ccccc2)c1 (stereo not drawn) [Example 1, 4-fluoro-2-[[(4-methoxy-2-pyridinyl)methyl]sulfinyl]-1H-benzimidazole-1-ylmethyl benzyl carbonate] |  |  |  |
| 3 | 16 | CCOC(=O)OCn1c([S+]([O-])Cc2cc(OC)ccn2)nc2c(F)cccc21 (stereo not drawn) [Example 2, 4-fluoro-2-[[(4-methoxy-2-pyridinyl)methyl]sulfinyl] -1H-benzimidazole-1-ylmethyl ethyl carbonate] | 1.3 | 55 | no effect |
